Experimental data published in US20040009899A1, “Treating dominant disorders” (priority 2002, published 2004).

Assays:
[1] = system: endogenous mouse Hdh allele; test: Western immunoblot of endogenous mouse htt expression in PNA-treated R6/1 mice; format: in vivo; conditions: any tissue examined (striatum, liver), any tested time point (4 or 6 days)
Experimental: Cannulation and microsurgery—method 1: B6CBA, R6/1, and R6/2 mice were obtained from The Jackson Laboratory (Bar Harbor, Me.). Mice were anesthetized via intraperitoneal (i.p.) injection with 100 mg/kg of a ketamine/xylazine solution containing 8 mg/mL ketamine and 1 mg/mL xylazine in 0.9% saline. Once anesthetized, each mouse was cannulated. Each anesthetized mouse was placed in a Stoelting Stereotaxic Frame with a mouse adapter (Stoelting Instruments, Wood Dale, Ill.). An incision was made using a scalpel, and the skin and tissue were pulled back with swabs to reveal the skull. The cannulation site was positioned for optimum access to the ventricle, at coordinates AP −0.2 mm, Horiz −1 mm from bregma. A cannula entry port and two bone screw ports were opened in the skull using a Dremel Flex Shaft Drill (Stoelting Instruments) with a 2.1 mm burr for the guide cannula port and a 0.7 mm burr for the bone screws (Fine Science Tools, Foster City, Calif.). Two 4.0 mm long bone screws (0.85 diameter) were placed far enough into the bone screw ports to fasten securely. […]
Following the treatment period, mice were anesthetized with ether and sacrificed by cervical dislocation. […] Following centrifugation, the supernatants were removed and protein concentrations were quantified by Bradford assays using a BSA standard. […]

GAPDH = test: Western immunoblot of GAPDH (non-targeted gene) in PNA-treated R6/1 mice; format: in vivo, mouse; conditions: any animal tested
Experimental: Following the treatment period, mice were anesthetized with ether and sacrificed by cervical dislocation. Whole brains and livers were removed and placed in 0.9% saline. Striatum tissue was dissected from whole brains, and liver tissue was finely minced. The tissues were placed in separate 2 mL microfuge tubes on dry ice and then suspended in 20 volumes of RIPA buffer (50 mM Tris pH 8, 150 mM NaCl, 1 mM EDTA, 1 mM EGTA, 0.5% sodium deoxycholate, 0.1% SDS, 1% TritonX-100, 2 μg/mL leupeptin, 2 μg/mL aprotinin, 1 μg/mL pepstatin, 1 mM phenylmethylsulfonylfluoride) per gram of tissue. Suspended tissues were homogenized by sonication, and the homogenates were clarified by centrifugation at 12,000×g for 20 minutes at 4° C. Following centrifugation, the supernatants were removed and protein concentrations were quantified by Bradford assays using a BSA standard.
Immunoblotting: Supernatants from the tissue homogenates were mixed with 1/6 volume of 6×SDS sample buffer (350 mM Tris pH 6.8, 10% SDS, 30% glycerol, 15% 2-mercaptoethanol, 0.012% bromophenol blue). Equal amounts of protein were directly loaded onto 10% acrylamide/0.05% bisacrylamide gels without heat denaturation. […] Protein bands were detected on film by chemiluminescence. […]

mice = test: Toxicity observation (behavior, weight, motor function) during intraventricular PNA treatment; format: in vivo; conditions: 1.0 μL (25 μg/μL) into the ventricle every other day
Experimental: Animal treatment and tissue preparation: Aliquots of 1.0 μL (25 μg/μL) of a PNA oligomer specific for the expanded human HD allele (HDs) or a scrambled control PNA (HDscr) were administered into the ventricle every other day by injection via the cannula.

HDscr: scrambled control PNA oligomer, 5′-GCAGCGGCGGTCCT-3′ (SEQ ID NO:4) (all peptide nucleic acid (PNA)) [reference compound]
effect on expression of the endogenous mouse Hdh allele [1]: Neither HDs nor HDscr had any effect | inhibition of non-targeted genes such as GAPDH (GAPDH): No measurable inhibition | toxicity as measured by weight or motor function relative to untreated animals (mice): no effects of toxicity
